These results are taken from PMC6195434 (Environmental science & technology, 2018).

Like-named read-outs stand apart in the source and are kept apart here.

In data set [1] the target is T1, RyR1 (Oryctolagus cuniculus, UniProt P11716). Particulars: previous data; cited from earlier work.
Data set [2] addresses T1, RyR1. In words: Equilibrium [3H]Ry binding analysis on RyR1-enriched microsomal membranes. Also noted: species or system New Zealand White rabbits. The conditions noted are these: for activity in enhancing [3H]Ry binding to RyR1: concentration-response, efficacy at 10 μM, Figure 3A, B; for RyR1 inhibitory potency compared with 6 / decrease of apparent activation potency relative to 6: Figure 3C table insert; for maximum efficacy relative to 6: higher maximum efficacy at 50 μM compared to that reached by 6 at 1 μM; for decrease of apparent activation potency relative to 6: less potent activator than 6.

For data set [3], the system named is microsomal (JSR) membrane vesicles. In words: Microsomal Ca2+ fluxes and Ca2+-induced Ca2+ release. In kind it is biochemical, New Zealand White rabbits. For orientation: Calcium flux is commonly read through the fluorescence of an indicator in the cells.
The target of a further data set is SERCA1a (Oryctolagus cuniculus, UniProt P04191). Kind of data set: biochemical. In kind it is biochemical, New Zealand White rabbits. Particulars: for inhibition at 10 µM: read-out: SERCA1a inhibition; for activity toward SERCA1a: Figure 5G.
Data set [4] has as its system Platynereis dumerilii embryos. The conditions noted are these: cited from earlier work.
In data set [5] the test system is CHO (Chinese hamster ovary) cells. The conditions noted are these: cited from earlier work.
[6] abbreviates: at 2 μM, baseline = binding in presence of Veh alone, p < 0.05 vs Veh.
The mark [7] stands for this setting: 5 or 10 μM, initial 60 s release rate, vesicles loaded with 4 × 45 nmole Ca2+.
Setting [8] is: expanded concentration range, Figure 3C.

T1 sequence (P11716 whole entry): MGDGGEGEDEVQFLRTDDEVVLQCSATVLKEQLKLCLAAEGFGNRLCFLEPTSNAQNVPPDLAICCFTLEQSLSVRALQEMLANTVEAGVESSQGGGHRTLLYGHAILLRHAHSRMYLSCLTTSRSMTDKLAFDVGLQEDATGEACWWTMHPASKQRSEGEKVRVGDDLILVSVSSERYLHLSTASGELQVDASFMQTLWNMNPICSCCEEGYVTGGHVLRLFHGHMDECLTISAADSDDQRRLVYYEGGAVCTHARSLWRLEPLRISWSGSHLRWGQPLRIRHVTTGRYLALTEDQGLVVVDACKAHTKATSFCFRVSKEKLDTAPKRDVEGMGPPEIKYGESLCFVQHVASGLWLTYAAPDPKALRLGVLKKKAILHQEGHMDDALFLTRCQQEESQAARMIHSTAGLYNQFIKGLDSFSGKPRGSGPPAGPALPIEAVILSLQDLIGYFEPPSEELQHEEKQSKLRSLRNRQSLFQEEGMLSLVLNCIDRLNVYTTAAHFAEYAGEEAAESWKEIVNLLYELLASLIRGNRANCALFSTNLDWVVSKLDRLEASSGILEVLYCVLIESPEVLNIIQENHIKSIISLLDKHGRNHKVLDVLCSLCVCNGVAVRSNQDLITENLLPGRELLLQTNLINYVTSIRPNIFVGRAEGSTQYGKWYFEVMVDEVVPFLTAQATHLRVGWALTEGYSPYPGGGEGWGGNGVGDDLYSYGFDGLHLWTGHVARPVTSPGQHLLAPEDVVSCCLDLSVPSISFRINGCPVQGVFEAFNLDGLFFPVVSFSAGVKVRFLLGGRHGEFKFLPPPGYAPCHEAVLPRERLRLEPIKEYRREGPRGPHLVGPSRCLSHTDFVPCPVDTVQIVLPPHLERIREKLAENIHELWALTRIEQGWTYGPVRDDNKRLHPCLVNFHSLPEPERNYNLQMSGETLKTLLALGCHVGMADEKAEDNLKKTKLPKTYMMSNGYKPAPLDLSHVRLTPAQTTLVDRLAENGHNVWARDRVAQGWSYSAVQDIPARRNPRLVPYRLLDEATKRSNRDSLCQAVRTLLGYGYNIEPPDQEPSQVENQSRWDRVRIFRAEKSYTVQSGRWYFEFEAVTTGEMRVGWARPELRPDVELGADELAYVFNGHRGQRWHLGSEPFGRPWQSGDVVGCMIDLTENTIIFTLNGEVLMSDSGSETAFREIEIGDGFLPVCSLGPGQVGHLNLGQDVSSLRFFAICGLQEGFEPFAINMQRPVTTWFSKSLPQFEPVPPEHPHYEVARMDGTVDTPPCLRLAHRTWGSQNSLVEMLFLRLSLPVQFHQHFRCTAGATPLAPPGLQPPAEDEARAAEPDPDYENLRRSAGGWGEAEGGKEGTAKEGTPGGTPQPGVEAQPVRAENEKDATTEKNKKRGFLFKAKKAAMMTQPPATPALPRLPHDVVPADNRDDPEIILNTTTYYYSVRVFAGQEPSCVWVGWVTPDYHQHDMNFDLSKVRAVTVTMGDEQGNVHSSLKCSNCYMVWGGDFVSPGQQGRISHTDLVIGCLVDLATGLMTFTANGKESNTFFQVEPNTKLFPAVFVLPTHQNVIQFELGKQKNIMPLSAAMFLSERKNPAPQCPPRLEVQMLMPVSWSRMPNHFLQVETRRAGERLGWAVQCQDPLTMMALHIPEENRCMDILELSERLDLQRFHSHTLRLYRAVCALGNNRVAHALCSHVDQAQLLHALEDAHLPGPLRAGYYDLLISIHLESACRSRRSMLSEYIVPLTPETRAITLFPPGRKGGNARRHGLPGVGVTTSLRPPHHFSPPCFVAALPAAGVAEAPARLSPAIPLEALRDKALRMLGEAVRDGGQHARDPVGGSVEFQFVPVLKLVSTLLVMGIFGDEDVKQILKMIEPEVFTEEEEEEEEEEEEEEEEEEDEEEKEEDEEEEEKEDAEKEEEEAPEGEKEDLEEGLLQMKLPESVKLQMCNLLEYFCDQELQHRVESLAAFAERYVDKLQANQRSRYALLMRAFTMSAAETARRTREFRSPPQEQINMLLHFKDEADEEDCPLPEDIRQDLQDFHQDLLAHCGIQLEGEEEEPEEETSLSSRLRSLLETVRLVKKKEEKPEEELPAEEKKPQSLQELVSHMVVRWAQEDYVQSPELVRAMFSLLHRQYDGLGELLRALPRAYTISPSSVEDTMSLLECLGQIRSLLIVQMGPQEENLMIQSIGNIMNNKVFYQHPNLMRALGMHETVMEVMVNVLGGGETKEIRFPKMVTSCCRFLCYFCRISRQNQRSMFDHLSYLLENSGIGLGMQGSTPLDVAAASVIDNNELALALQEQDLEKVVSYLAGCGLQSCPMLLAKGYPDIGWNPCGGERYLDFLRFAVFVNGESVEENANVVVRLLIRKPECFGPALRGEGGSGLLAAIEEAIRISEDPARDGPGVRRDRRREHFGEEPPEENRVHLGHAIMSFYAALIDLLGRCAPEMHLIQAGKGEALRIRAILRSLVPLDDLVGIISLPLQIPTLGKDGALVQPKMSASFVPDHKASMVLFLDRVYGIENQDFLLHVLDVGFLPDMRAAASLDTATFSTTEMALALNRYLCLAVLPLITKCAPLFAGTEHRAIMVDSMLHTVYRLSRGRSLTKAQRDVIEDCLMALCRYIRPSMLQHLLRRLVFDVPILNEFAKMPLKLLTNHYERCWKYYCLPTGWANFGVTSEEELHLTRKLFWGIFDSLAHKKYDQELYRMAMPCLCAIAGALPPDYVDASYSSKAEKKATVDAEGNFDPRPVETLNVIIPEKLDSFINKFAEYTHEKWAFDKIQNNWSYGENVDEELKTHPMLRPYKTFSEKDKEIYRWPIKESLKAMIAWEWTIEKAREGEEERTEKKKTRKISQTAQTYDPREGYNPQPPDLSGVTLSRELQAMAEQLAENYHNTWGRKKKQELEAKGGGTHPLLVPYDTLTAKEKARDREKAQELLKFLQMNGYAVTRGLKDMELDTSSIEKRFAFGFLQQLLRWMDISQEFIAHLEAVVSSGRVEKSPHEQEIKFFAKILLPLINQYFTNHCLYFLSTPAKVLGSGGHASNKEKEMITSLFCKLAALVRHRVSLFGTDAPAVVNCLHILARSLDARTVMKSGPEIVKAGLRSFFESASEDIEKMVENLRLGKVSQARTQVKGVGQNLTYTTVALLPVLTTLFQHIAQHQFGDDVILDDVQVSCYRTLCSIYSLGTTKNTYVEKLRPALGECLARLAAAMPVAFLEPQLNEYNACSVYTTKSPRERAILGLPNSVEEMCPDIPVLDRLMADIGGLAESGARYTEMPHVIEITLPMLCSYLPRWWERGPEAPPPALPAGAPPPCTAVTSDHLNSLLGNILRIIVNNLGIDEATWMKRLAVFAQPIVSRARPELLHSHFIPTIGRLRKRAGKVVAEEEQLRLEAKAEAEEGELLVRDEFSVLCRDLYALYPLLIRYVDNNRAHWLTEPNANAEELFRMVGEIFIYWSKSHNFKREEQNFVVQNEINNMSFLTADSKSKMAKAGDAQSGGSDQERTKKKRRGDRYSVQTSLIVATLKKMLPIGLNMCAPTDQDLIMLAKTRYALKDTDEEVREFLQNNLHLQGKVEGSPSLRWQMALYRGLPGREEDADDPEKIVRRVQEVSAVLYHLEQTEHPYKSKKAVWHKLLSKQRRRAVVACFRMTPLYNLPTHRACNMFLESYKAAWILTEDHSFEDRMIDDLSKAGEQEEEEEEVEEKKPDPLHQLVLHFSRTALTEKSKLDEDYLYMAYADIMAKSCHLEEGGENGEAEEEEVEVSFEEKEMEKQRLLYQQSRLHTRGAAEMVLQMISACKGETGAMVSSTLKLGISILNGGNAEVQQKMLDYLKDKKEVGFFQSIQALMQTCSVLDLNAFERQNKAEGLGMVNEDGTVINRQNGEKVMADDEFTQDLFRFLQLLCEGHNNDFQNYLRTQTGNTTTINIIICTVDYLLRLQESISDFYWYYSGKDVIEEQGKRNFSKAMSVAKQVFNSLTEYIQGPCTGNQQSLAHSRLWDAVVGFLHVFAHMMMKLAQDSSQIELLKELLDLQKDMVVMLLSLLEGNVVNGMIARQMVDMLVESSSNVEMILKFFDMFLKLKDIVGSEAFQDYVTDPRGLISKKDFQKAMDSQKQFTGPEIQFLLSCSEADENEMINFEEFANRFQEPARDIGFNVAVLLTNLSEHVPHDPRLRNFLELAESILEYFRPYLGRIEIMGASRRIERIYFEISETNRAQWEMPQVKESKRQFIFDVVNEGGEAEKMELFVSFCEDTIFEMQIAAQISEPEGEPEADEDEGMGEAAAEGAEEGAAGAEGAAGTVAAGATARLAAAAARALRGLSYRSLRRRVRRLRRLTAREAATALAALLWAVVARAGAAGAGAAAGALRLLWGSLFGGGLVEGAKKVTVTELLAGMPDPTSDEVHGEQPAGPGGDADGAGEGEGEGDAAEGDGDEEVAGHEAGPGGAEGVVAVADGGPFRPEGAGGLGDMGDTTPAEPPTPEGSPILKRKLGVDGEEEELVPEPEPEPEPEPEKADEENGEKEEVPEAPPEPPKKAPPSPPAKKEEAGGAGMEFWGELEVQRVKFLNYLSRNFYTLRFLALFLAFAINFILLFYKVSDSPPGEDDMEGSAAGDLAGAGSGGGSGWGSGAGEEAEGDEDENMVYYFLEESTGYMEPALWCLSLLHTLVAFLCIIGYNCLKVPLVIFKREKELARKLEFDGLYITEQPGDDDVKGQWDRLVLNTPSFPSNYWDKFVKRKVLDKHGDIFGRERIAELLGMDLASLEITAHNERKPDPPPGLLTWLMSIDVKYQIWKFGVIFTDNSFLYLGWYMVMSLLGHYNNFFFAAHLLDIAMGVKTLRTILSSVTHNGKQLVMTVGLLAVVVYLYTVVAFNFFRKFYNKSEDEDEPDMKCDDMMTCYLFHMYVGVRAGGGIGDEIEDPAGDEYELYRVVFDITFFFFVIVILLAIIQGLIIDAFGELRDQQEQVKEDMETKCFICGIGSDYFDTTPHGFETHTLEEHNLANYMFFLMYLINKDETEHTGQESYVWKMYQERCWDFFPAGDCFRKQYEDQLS
T1 sequence (P62943 2-108 partner limits assumed): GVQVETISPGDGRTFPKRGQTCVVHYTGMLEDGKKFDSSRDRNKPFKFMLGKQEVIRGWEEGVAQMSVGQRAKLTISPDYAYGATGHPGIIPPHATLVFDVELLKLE

For the compound `Brc1ccc(Oc2cc(Br)ccc2Br)c(Br)c1` [BDE-49], the “mode of action toward RyR1” value at RyR1 [1] was “monotonic”.

Consider `Oc1cc(Br)c(Oc2ccc(Br)cc2Br)cc1Br` [Compound 4-OH-BDE-49, 4′hydroxy-2,2′,4,5′-tetrabromodiphenyl ether], for which, on RyR1 [1], the “mode of action toward RyR1” value was “biphasic”.

Consider `O=C1NC(=O)C(Br)=C1Br` [Compound 6, 2,3-dibromomaleimide], for which, on RyR1 [2], the half-maximal effective concentration (EC50) (as a rule, the concentration needed to bring the measured effect to its halfway point) amounted to 360 nM; the IC50 (usually the concentration that gives 50% inhibition) stood at 3000 nM; the “concentration at which RyR1 inhibitory phase was detected” value is below 5 µM; the “concentration that maximally activated RyR1” value is 0.6−1.0 μM. Besides, at RyR1 [2], the “enhancement of [3H]Ry binding to RyR1 compared to baseline” value (from here on “enhancement … compared to baseline”) is reported as at least 1.5 fold and the “mode of modulation of RyR1” value was “biphasic”. Besides, in data set [3], the “Ca2+-induced Ca2+ release rate vs control” value is recorded as “significantly higher rates of release than control”, the “net release of accumulated Ca2+ from loaded microsomal vesicles” value (from here on “net release of accumulated Ca2+”) is given as “failed to trigger net Ca^2+ efflux” and the “sensitizing influence on calcium-induced calcium release” value is on record as “did not reach statistical significance”. Moreover, on SERCA1a, the “SERCA1a inhibition” value is “without inhibition of SERCA1a”; the “concentration at which SERCA1a inhibition was detected (only the highest tested)” value turned out to be 10 µM; the inhibition (commonly the change of the read-out against control, counted positive when it falls) at 10 µM is 50%.

Consider `Clc1[nH]c2ccccc2c1Cl` [Compound 13, 2,3-dichloroindole], for which the “enhancement … compared to baseline” value on RyR1 [2] (setting [6]) is given as at least 1.5 fold.

In the case of `Brc1[nH]c2ccccc2c1Br` [Compound 14, 2,3-dibromoindole], the “enhancement … compared to baseline” value on RyR1 [2] (setting [6]) was at least 1.5 fold. The “net release of accumulated Ca2+” value in data set [3] (setting [7]) is “triggered dose-dependent Ca^2+ efflux”. For the same compound, the inhibition at 10 µM on SERCA1a amounted to 60%.

Take `Oc1c(Br)cc(Oc2c(Br)cc(Br)cc2Br)cc1Br` [Compound 18, 4′-hydroxy-2,3′,4,5′,6-pentabromodiphenyl ether]: the “enhancement … compared to baseline” value at RyR1 [2] (setting [6]) was at least 1.5 fold. In data set [3] (setting [7]), the “net release of accumulated Ca2+” value is “triggered dose-dependent Ca^2+ efflux”. In addition, the SERCA1a inhibition at SERCA1a (at 2.0 μM) is recorded as above 80%; at SERCA1a (at 10 μM) it was ~ 90%.

Consider `c1cc[nH]c1` [Compound 24, pyrrole], for which the “activity in enhancing [3H]Ry binding to RyR1” value (shortened to “activity in enhancing”) on RyR1 [2] is “inactive”. Also, at SERCA1a, the “activity toward SERCA1a” value was “inactive”.

As for `Brc1c[nH]c(Br)c1Br` [Compound 26, 2,3,4-tribromopyrrole], the “activity in enhancing” value on RyR1 [2] is “inactive”. Besides, the “net release of accumulated Ca2+” value in data set [3] (setting [7]) is given as “failed to trigger net release”. Besides, the “activity toward SERCA1a” value on SERCA1a was “inactive”.

Regarding `CCOC(=O)c1cc(Br)c[nH]1` [Compound 27, ethyl-4-bromopyrrole-2-carboxylate], the “activity in enhancing” value at RyR1 [2] is “inactive”. For the same compound, the “net release of accumulated Ca2+” value in data set [3] (setting [7]) is given as “failed to trigger net release”. Moreover, the “activity toward SERCA1a” value on SERCA1a was “inactive”.

For `CN1C(=O)C(Br)=C(Br)C1=O` [Compound 28, 2,3-dibromo-N-methylmaleimide], the “enhancement … compared to baseline” value on RyR1 [2] (setting [6]) is on record as at least 1.5 fold. Besides, the “mode of modulation of RyR1” value at RyR1 [2] (setting [8]) is on record as “biphasic”.

With `Brc1[nH]c(Br)c(Br)c1Br` [Compound 31, tetrabromopyrrole], the “developmental toxicity” value in data set [4] is on record as “potent developmental toxicity”. At RyR1 [2], the “RyR1 inhibitory potency compared with 6” value is listed as “weaker inhibitors than 6”, the “maximum efficacy relative to 6” value came to 2.5 fold and the “decrease of apparent activation potency relative to 6” value came to 68 fold. The “enhancement … compared to baseline” value at RyR1 [2] (setting [6]) is on record as at least 1.5 fold. The “mode of modulation of RyR1” value on RyR1 [2] (setting [8]) is given as “biphasic”. For the same compound, in data set [3] (setting [7]), the “net release of accumulated Ca2+” value is on record as “triggered dose-dependent Ca^2+ efflux”. In addition, at SERCA1a (at 10 μM), the SERCA1a inhibition is listed as 80%.

As to `Brc1cc(Br)c(Br)[nH]1` [Compound 34, 2,3,5-tribromopyrrole], at RyR1 [2], the “RyR1 inhibitory potency compared with 6” value is recorded as “weaker inhibitors than 6”, the “maximum efficacy relative to 6” value amounted to 2.5 fold and the “decrease of apparent activation potency relative to 6” value is recorded as 107 fold. Also, on RyR1 [2] (setting [6]), the “enhancement … compared to baseline” value was at least 1.5 fold. In addition, the “mode of modulation of RyR1” value at RyR1 [2] (setting [8]) is “biphasic”. Moreover, the “net release of accumulated Ca2+” value in data set [3] (setting [7]) is reported as “triggered dose-dependent Ca^2+ efflux”. On SERCA1a, the inhibition at 10 µM was 48%. Besides, in data set [5], the “cytotoxicity” value is “cytotoxic” and the “genotoxicity” value is on record as “genotoxic”.

As to Hexabromobipyrroles [Compound 25], the “enhancement … compared to baseline” value at RyR1 [2] (setting [6]) is on record as at least 1.5 fold. Moreover, the “net release of accumulated Ca2+” value in data set [3] (setting [7]) is “triggered dose-dependent Ca^2+ efflux”. Further, in data set [3] (concentration-dependent, Figure SI3), the “loading capacity of calcium into microsomal vesicles” value is given as “diminished the loading capacity”. Further, the SERCA1a inhibition at SERCA1a (at 2.0 μM) was above 80%; on SERCA1a (at 10 μM) it was ~ 90%.
